One test deals with full-length ATR (Homo sapiens (Human), UniProt Q13535). In words: ATR inhibition assay (radioactive-phosphate incorporation). Type of test: biochemical.
For test [1], the system named is HCT116 colorectal cancer cells. In words: Single agent HCT116 activity, 96 h cell viability (MTS) assay. As to conditions: Homo sapiens, HCT-116, 96 h MTS viability, read-out: Single agent HT116 IC50. It counts as cell-based. As for the experimental part:
Compounds can be screened for single agent activity against HCT116 colorectal cancer cells using a 96 h cell viability (MTS) assay. HCT116 are plated at 470 cells per well in 96-well polystyrene plates (Costar 3596) in 150 μl of McCoy's 5A media (Sigma M8403) supplemented with 10% foetal bovine serum (JRH Biosciences 12003), Penicillin/Streptomycin solution diluted 1:100 (Sigma P7539), and 2 mM L-glumtamine (Sigma G7513), and allowed to adhere overnight at 37° C. in 5% CO2. Compounds are then added to the cell media in 2-fold serial dilutions from a top final concentration of 10 μM as a full matrix of concentrations in a final cell volume of 200 μl, and the cells are then incubated at 37° C. in 5% CO2. After 96 h, 40 μl of MTS reagent (Promega G358a) is added to each well and the cells are incubated for 1 h at 37° C. in 5% CO2. Finally, absorbance is measured at 490 nm using a SpectraMax Plus 384 reader (Molecular Devices) and IC50 values can be calculated.

For test [2], the system named is HCT116 colorectal cancer cells. In words: Cisplatin sensitization assay, 96 h cell viability (MTS). Type of test: cell-based. As to conditions: concentration of compound required to reduce the IC50 of Cisplatin alone by at least 3-fold; HCT116, 96 h MTS. As for the experimental part: Compounds can be screened for their ability to sensitize HCT116 colorectal cancer cells to Cisplatin using a 96 h cell viability (MTS) assay. […] Compounds and Cisplatin are then both added simultaneously to the cell media in 2-fold serial dilutions from a top final concentration of 10 μM as a full matrix of concentrations in a final cell volume of 200 μl, and the cells are then incubated at 37° C. in 5% CO2. After 96 h, 40 μl of MTS reagent (Promega G358a) is added to each well and the cells are incubated for 1 h at 37° C. in 5% CO2.

Chain of full-length ATR (Q13535 whole entry): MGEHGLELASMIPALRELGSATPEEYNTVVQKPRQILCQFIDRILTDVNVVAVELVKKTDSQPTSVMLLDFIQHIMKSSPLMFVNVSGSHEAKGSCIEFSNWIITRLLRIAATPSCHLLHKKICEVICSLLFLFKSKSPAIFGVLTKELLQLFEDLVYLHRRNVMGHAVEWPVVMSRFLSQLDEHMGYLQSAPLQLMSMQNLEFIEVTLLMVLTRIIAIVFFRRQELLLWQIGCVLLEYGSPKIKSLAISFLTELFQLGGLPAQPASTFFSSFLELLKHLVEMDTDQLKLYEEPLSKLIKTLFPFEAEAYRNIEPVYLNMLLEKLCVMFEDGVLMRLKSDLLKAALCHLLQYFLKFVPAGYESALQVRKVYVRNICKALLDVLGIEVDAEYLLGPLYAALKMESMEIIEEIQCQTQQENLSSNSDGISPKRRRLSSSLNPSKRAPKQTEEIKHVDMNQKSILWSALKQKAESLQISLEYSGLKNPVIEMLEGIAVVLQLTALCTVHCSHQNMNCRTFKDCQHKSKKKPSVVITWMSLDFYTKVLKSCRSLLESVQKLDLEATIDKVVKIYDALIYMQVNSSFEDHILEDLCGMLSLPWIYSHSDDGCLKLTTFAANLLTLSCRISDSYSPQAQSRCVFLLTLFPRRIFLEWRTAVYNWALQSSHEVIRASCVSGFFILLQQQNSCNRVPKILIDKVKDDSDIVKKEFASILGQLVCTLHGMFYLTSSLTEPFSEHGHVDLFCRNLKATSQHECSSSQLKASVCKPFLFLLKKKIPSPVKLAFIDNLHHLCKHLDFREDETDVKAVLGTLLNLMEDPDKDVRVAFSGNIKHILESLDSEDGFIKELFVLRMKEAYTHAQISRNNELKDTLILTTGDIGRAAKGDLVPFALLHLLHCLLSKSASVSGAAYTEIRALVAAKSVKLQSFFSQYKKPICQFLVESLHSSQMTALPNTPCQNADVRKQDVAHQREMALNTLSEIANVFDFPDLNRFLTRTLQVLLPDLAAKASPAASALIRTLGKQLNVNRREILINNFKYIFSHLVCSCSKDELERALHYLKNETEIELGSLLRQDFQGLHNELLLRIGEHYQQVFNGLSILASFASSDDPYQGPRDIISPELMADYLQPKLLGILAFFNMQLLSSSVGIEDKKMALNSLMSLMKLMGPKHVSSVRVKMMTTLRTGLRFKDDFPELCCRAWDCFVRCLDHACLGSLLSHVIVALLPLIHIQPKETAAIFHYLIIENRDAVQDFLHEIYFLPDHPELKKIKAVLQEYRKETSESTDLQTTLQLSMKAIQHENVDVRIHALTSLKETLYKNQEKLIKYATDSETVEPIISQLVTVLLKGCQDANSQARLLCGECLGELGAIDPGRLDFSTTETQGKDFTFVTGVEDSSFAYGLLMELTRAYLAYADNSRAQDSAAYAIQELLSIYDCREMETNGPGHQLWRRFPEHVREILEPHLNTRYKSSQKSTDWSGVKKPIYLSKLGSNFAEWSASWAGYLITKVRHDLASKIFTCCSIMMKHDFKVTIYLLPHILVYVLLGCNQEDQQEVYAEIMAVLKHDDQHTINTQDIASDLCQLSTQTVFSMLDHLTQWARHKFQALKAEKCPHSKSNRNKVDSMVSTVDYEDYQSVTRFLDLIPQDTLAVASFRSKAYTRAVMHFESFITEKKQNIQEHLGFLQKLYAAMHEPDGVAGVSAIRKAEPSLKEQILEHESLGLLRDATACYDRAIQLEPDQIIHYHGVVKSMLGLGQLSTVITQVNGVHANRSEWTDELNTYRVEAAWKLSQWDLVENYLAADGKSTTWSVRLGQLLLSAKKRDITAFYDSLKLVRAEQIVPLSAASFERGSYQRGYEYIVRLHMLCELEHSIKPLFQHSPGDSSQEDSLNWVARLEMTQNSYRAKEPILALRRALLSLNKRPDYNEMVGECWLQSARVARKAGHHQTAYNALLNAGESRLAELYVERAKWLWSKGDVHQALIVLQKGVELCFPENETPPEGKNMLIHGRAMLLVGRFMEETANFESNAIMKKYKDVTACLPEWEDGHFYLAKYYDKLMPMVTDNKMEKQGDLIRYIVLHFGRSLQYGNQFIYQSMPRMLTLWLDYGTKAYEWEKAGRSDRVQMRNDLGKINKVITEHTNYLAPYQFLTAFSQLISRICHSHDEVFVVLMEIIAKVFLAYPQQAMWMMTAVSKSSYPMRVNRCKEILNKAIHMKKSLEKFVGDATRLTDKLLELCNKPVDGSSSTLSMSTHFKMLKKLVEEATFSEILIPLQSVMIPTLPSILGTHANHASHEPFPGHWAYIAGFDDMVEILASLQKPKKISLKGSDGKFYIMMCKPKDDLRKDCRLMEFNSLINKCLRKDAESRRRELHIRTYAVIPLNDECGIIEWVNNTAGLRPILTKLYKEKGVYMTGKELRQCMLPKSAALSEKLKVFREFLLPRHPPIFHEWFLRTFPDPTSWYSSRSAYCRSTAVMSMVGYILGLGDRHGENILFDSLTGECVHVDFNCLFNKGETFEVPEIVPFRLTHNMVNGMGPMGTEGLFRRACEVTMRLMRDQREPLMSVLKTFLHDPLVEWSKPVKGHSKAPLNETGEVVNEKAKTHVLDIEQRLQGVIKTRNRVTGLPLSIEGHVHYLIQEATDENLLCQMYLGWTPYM
Method for full-length ATR: Compounds can be screened for their ability to inhibit ATR kinase using a radioactive-phosphate incorporation assay. Assays are carried out in a mixture of 50 mM Tris/HCl (pH 7.5), 10 mM MgCl2 and 1 mM DTT. Final substrate concentrations are 10 μM [γ-33P]ATP (3 mCi 33P ATP/mmol ATP, Perkin Elmer) and 800 μM target peptide ([sequence]).
Assays are carried out at 25° C. in the presence of 5 nM full-length ATR. An assay stock buffer solution is prepared containing all of the reagents listed above, with the exception of ATP and the test compound of interest. […] The plate is pre-incubated for 10 minutes at 25° C. and the reaction initiated by addition of 15 μL [γ-33P]ATP (final concentration 10 μM).
The reaction is stopped after 24 hours by the addition of 30 μL 0.1M phosphoric acid containing 2 mM ATP. A multiscreen phosphocellulose filter 96-well plate (Millipore, Cat no. MAPHNOB50) is pretreated with 100 μL 0.2M phosphoric acid prior to the addition of 45 μL of the stopped assay mixture. […]
After removing mean background values for all of the data points, Ki(app) data are calculated from non-linear regression analysis of the initial rate data using the Prism software package (GraphPad Prism version 3.0cx for Macintosh, GraphPad Software, San Diego Calif., USA).

As for “5-(4-(tert-butylsulfonyl)phenyl)-3-(3-(4-((methylamino)methyl)phenyl)isoxazol-5-yl)pyrazin-2-amine [Compound I-2]”, the Ki on full-length ATR was less than 1 nM. With `CC(C)(C#N)c1cc(-c2cnc(N)c(-c3cc(-c4ccc(CNC5CCOCC5)cc4)no3)n2)ccn1` [Compound I-1, 2-(4-(5-amino-6-(3-(4-((tetrahydro-2H-pyran-4-ylamino)methyl)phenyl)isoxazol-5-yl)pyrazin-2-yl)pyridin-2-yl)-2-methylpropanenitrile], the Ki at full-length ATR is less than 1 nM. For the compound `[2H]C([2H])(NC)c1ccc(-c2cc(-c3nc(-c4ccc(S(=O)(=O)C(C)C)cc4)cnc3N)on2)cc1` [II-1, 3-[3-[4-[dideuterio(methylamino)methyl]phenyl]isoxazol-5-yl]-5-(4-isopropylsulfonylphenyl)pyrazin-2-amine], the IC50 in test [1] was 62 nM. For the same compound, the “Cisplatin sensitization” value in test [2] was found to be 39 nM. `[2H]C([2H])([2H])NC([2H])([2H])c1ccc(-c2cc(-c3nc(-c4ccc(S(=O)(=O)C(C)C)cc4)cnc3N)on2)cc1` [II-2, 3-[3-[4-[dideuterio-(trideuteriomethylamino)methyl]phenyl]isoxazol-5-yl]-5-(4-isopropylsulfonylphenyl)pyrazin-2-amine]: the IC50 in test [1] was 46 nM. Moreover, in test [2], the “Cisplatin sensitization” value worked out at 29 nM. For `[2H]C([2H])([2H])NCc1ccc(-c2cc(-c3nc(-c4ccc(S(=O)(=O)C(C)C)cc4)cnc3N)on2)cc1` [II-3, 5-(4-isopropylsulfonylphenyl)-3-[3-[4-[(trideuteriomethylamino)methyl]phenyl]isoxazol-5-yl]pyrazin-2-amine], the IC50 in test [1] was 66 nM. Further, in test [2], the “Cisplatin sensitization” value was 39 nM.

These data come from patent US10208027B2, “Processes for preparing ATR inhibitors” (Vertex Pharmaceuticals Incorporated, priority 2011, dated 2019).
